Patent US7994209B2, “3-phenoxymethylpyrrolidine compounds” (Theravance, Inc., priority 2009, dated 2011)

Molecular target: T1, hSERT (Homo sapiens, UniProt P31645)
Assay: hSERT neurotransmitter uptake assay (3H-5-HT), Assay 2
Format: cell-based
Parameters: expressed in transfected cells; host or cells: HEK-293
Settings: serotonin reuptake inhibition, 3H-5-HT uptake, HEK-293 hSERT cells (values without asterisk); read-out: SERT pIC50 (converted)
Method: (§1) Cells were harvested by centrifugation at 1100 rpm for 5 minutes, washed once by resuspension in PBS, then centrifuged. The supernatant was discarded and the cell pellet resuspended, by gentle trituration, in room temperature Krebs-Ringer bicarbonate buffer containing HEPES (10 mM), CaCl2 (2.2 mM), ascorbic acid (200 μM) and pargyline (200 μM), pH 7.4.
(§2) Test compounds were incubated for 30 minutes at 37° C. with the respective cells, prior to addition of radiolabeled neurotransmitter, ^3H-5-HT (20 nM final concentration), ^3H-NE (50 nM final concentration) or ^3H-DA (100 nM final concentration).

T1 sequence (P31645 whole entry): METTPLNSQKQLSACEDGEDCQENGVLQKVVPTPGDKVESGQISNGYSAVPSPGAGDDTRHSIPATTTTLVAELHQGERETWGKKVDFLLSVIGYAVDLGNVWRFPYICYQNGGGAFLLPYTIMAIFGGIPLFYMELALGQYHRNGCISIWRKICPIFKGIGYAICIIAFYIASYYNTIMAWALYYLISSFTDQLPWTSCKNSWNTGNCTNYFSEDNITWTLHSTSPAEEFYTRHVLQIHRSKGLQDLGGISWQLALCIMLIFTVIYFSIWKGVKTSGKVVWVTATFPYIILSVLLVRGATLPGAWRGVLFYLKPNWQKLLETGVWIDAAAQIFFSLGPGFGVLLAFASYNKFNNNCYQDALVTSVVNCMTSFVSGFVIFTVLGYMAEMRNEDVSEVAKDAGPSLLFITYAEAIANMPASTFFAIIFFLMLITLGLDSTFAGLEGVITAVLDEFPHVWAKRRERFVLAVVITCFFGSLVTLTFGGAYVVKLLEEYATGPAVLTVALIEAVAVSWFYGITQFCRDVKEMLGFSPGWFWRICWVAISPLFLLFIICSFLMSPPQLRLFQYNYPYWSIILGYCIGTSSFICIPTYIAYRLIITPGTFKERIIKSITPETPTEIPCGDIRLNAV

SMILES | IC50
CCC[C@H](Oc1ccc(F)cc1Cl)[C@H]1CCNC1 [Example 4-32, (S)-3-[(S)-1-(2-Chloro-4-fluorophenoxy)butyl]pyrrolidine] | ≤ 10 nM
CCC[C@H](Oc1c(Cl)cccc1Cl)[C@H]1CCNC1 [Example 4-33, (S)-3-[(S)-1-(2,6-Dichlorophenoxy)butyl]pyrrolidine] | ≤ 100 nM
CCC[C@H](Oc1ccc(C)cc1Cl)[C@H]1CCNC1 [Example 4-37, (S)-3-[(S)-1-(2-Chloro-4-methylphenoxy)butyl]pyrrolidine] | ≤ 10 nM
CCC[C@H](Oc1c(F)ccc(OC)c1Cl)[C@H]1CCNC1 [Example 4-43, (S)-3-[(S)-1-(2-Chloro-6-fluoro-3-methoxyphenoxy)butyl]pyrrolidine] | ≤ 10 nM
CCC[C@H](Oc1ccc(F)c(F)c1F)[C@H]1CCNC1 [Example 4-50, (S)-3-[(S)-1-(2,3,4-Trifluorophenoxy)butyl]pyrrolidine] | ≤ 100 nM
CCC[C@H](Oc1cccc(Cl)c1C)[C@H]1CCNC1 [Example 4-54, (S)-3-[(S)-1-(3-Chloro-2-methylphenoxy)butyl]pyrrolidine] | ≤ 10 nM
CCC[C@@H](Oc1cccc(Cl)c1C)[C@H]1CCNC1 [Example 4-55, (S)-3-[(R)-1-(3-Chloro-2-methylphenoxy)butyl]pyrrolidine] | ≤ 100 nM
CCC[C@@H](Oc1cccc(Cl)c1C)[C@@H]1CCNC1 [Example 4-57, (R)-3-[(R)-1-(3-Chloro-2-methylphenoxy)butyl]pyrrolidine] | ≤ 10 nM
CCC[C@H](Oc1ccc(Cl)cc1C)[C@H]1CCNC1 [Example 4-58, (S)-3-[(S)-1-(4-Chloro-2-methylphenoxy)butyl]pyrrolidine] | ≤ 10 nM
CCC[C@@H](Oc1cccc(C)c1C)[C@@H]1CCNC1 [Example 4-63, (R)-3-[(R)-1-(2,3-Dimethylphenoxy)butyl]pyrrolidine] | ≤ 10 nM

Further lines, results first:

IC50 | SMILES
≤ 10 nM | CCC[C@H](Oc1ccc(Cl)c(F)c1)[C@H]1CCNC1 [Example 4-18, (S)-3-[(S)-1-(4-Chloro-3-fluorophenoxy)butyl]pyrrolidine]
≤ 100 nM | CCC[C@H](Oc1ccccc1Cl)[C@H]1CCNC1 [Example 4-19, (S)-3-[(S)-1-(2-Chlorophenoxy)butyl]pyrrolidine]
≤ 100 nM | CCC[C@@H](Oc1ccccc1Cl)[C@H]1CCNC1 [Example 4-20, (S)-3-[(R)-1-(2-Chlorophenoxy)butyl]pyrrolidine]
≤ 10 nM | CCC[C@@H](Oc1cccc(Cl)c1Cl)[C@H]1CCNC1 [Example 4-23, (S)-3-[(R)-1-(2,3-Dichlorophenoxy)butyl]pyrrolidine]
≤ 10 nM | CCC[C@@H](Oc1cccc(Cl)c1Cl)[C@@H]1CCNC1 [Example 4-25, (R)-3-[(R)-1-(2,3-Dichlorophenoxy)butyl]pyrrolidine]
≤ 10 nM | CCC[C@H](Oc1c(Cl)ccc(Cl)c1Cl)[C@H]1CCNC1 [Example 4-27, (S)-3-[(S)-1-(2,3,6-Trichlorophenoxy)butyl]pyrrolidine]
≤ 10 nM | CCC[C@H](Oc1ccc(Cl)cc1Cl)[C@H]1CCNC1 [Example 4-28, (S)-3-[(S)-1-(2,4-Dichlorophenoxy)butyl]pyrrolidine]

Molecular target: T2, hNET (Homo sapiens, UniProt P23975)
T2 sequence (P23975 whole entry): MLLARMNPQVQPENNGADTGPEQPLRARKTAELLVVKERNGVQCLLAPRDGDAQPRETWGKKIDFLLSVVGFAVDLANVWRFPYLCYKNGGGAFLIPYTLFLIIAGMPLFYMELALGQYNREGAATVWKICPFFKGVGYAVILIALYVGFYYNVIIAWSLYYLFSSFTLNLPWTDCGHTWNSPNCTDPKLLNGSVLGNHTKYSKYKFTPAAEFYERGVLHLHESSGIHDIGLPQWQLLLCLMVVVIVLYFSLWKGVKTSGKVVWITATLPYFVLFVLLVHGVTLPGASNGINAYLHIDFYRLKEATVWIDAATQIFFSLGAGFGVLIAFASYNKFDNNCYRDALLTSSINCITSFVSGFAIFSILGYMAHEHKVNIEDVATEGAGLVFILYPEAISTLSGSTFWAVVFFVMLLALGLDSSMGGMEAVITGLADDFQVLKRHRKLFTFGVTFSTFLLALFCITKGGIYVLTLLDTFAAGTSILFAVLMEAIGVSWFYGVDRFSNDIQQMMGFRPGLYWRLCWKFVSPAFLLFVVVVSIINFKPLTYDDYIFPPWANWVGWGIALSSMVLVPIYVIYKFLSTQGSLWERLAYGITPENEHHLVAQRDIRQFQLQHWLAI
Assay: hNET membrane radioligand binding assay (3H-nisoxetine), Assay 1
Settings: not given

SMILES | Ki
CCC[C@H](Oc1ccc(F)cc1Cl)[C@H]1CCNC1 [Example 4-32, (S)-3-[(S)-1-(2-Chloro-4-fluorophenoxy)butyl]pyrrolidine] | ≤ 10 nM
CCC[C@H](Oc1c(Cl)cccc1Cl)[C@H]1CCNC1 [Example 4-33, (S)-3-[(S)-1-(2,6-Dichlorophenoxy)butyl]pyrrolidine] | ≤ 10 nM
CCC[C@H](Oc1ccc(C)cc1Cl)[C@H]1CCNC1 [Example 4-37, (S)-3-[(S)-1-(2-Chloro-4-methylphenoxy)butyl]pyrrolidine] | ≤ 10 nM
CCC[C@H](Oc1c(F)ccc(OC)c1Cl)[C@H]1CCNC1 [Example 4-43, (S)-3-[(S)-1-(2-Chloro-6-fluoro-3-methoxyphenoxy)butyl]pyrrolidine] | ≤ 10 nM
CCC[C@H](Oc1ccc(F)c(F)c1F)[C@H]1CCNC1 [Example 4-50, (S)-3-[(S)-1-(2,3,4-Trifluorophenoxy)butyl]pyrrolidine] | ≤ 10 nM
CCC[C@H](Oc1cccc(Cl)c1C)[C@H]1CCNC1 [Example 4-54, (S)-3-[(S)-1-(3-Chloro-2-methylphenoxy)butyl]pyrrolidine] | ≤ 10 nM
CCC[C@@H](Oc1cccc(Cl)c1C)[C@H]1CCNC1 [Example 4-55, (S)-3-[(R)-1-(3-Chloro-2-methylphenoxy)butyl]pyrrolidine] | ≤ 10 nM
CCC[C@@H](Oc1cccc(Cl)c1C)[C@@H]1CCNC1 [Example 4-57, (R)-3-[(R)-1-(3-Chloro-2-methylphenoxy)butyl]pyrrolidine] | ≤ 10 nM
CCC[C@H](Oc1ccc(Cl)cc1C)[C@H]1CCNC1 [Example 4-58, (S)-3-[(S)-1-(4-Chloro-2-methylphenoxy)butyl]pyrrolidine] | ≤ 10 nM
CCC[C@@H](Oc1cccc(C)c1C)[C@@H]1CCNC1 [Example 4-63, (R)-3-[(R)-1-(2,3-Dimethylphenoxy)butyl]pyrrolidine] | ≤ 10 nM

Continued, values first:

Ki | SMILES
≤ 10 nM | CCC[C@H](Oc1ccc(Cl)c(F)c1)[C@H]1CCNC1 [Example 4-18, (S)-3-[(S)-1-(4-Chloro-3-fluorophenoxy)butyl]pyrrolidine]
≤ 10 nM | CCC[C@H](Oc1ccccc1Cl)[C@H]1CCNC1 [Example 4-19, (S)-3-[(S)-1-(2-Chlorophenoxy)butyl]pyrrolidine]
≤ 10 nM | CCC[C@@H](Oc1ccccc1Cl)[C@H]1CCNC1 [Example 4-20, (S)-3-[(R)-1-(2-Chlorophenoxy)butyl]pyrrolidine]
≤ 10 nM | CCC[C@@H](Oc1cccc(Cl)c1Cl)[C@H]1CCNC1 [Example 4-23, (S)-3-[(R)-1-(2,3-Dichlorophenoxy)butyl]pyrrolidine]
≤ 10 nM | CCC[C@@H](Oc1cccc(Cl)c1Cl)[C@@H]1CCNC1 [Example 4-25, (R)-3-[(R)-1-(2,3-Dichlorophenoxy)butyl]pyrrolidine]
≤ 10 nM | CCC[C@H](Oc1c(Cl)ccc(Cl)c1Cl)[C@H]1CCNC1 [Example 4-27, (S)-3-[(S)-1-(2,3,6-Trichlorophenoxy)butyl]pyrrolidine]
≤ 10 nM | CCC[C@H](Oc1ccc(Cl)cc1Cl)[C@H]1CCNC1 [Example 4-28, (S)-3-[(S)-1-(2,4-Dichlorophenoxy)butyl]pyrrolidine]

Molecular target: T1, hSERT
Assay: hSERT membrane radioligand binding assay (3H-citalopram), Assay 1
Settings: SERT pKi, hSERT HEK-293 membranes, 1.0 nM 3H-citalopram; values given as lower bounds

SMILES | Ki
CCC[C@H](Oc1ccc(F)cc1Cl)[C@H]1CCNC1 [Example 4-32, (S)-3-[(S)-1-(2-Chloro-4-fluorophenoxy)butyl]pyrrolidine] | ≤ 10 nM
CCC[C@H](Oc1c(Cl)cccc1Cl)[C@H]1CCNC1 [Example 4-33, (S)-3-[(S)-1-(2,6-Dichlorophenoxy)butyl]pyrrolidine] | ≤ 10 nM
CCC[C@H](Oc1ccc(C)cc1Cl)[C@H]1CCNC1 [Example 4-37, (S)-3-[(S)-1-(2-Chloro-4-methylphenoxy)butyl]pyrrolidine] | ≤ 10 nM
CCC[C@H](Oc1c(F)ccc(OC)c1Cl)[C@H]1CCNC1 [Example 4-43, (S)-3-[(S)-1-(2-Chloro-6-fluoro-3-methoxyphenoxy)butyl]pyrrolidine] | ≤ 10 nM
CCC[C@H](Oc1ccc(F)c(F)c1F)[C@H]1CCNC1 [Example 4-50, (S)-3-[(S)-1-(2,3,4-Trifluorophenoxy)butyl]pyrrolidine] | ≤ 10 nM
CCC[C@H](Oc1cccc(Cl)c1C)[C@H]1CCNC1 [Example 4-54, (S)-3-[(S)-1-(3-Chloro-2-methylphenoxy)butyl]pyrrolidine] | ≤ 10 nM
CCC[C@@H](Oc1cccc(Cl)c1C)[C@H]1CCNC1 [Example 4-55, (S)-3-[(R)-1-(3-Chloro-2-methylphenoxy)butyl]pyrrolidine] | ≤ 10 nM
CCC[C@@H](Oc1cccc(Cl)c1C)[C@@H]1CCNC1 [Example 4-57, (R)-3-[(R)-1-(3-Chloro-2-methylphenoxy)butyl]pyrrolidine] | ≤ 10 nM
CCC[C@H](Oc1ccc(Cl)cc1C)[C@H]1CCNC1 [Example 4-58, (S)-3-[(S)-1-(4-Chloro-2-methylphenoxy)butyl]pyrrolidine] | ≤ 10 nM
CCC[C@@H](Oc1cccc(C)c1C)[C@@H]1CCNC1 [Example 4-63, (R)-3-[(R)-1-(2,3-Dimethylphenoxy)butyl]pyrrolidine] | ≤ 10 nM

Second part, the compound after the results:

Ki | SMILES
≤ 10 nM | CCC[C@H](Oc1ccc(Cl)c(F)c1)[C@H]1CCNC1 [Example 4-18, (S)-3-[(S)-1-(4-Chloro-3-fluorophenoxy)butyl]pyrrolidine]
≤ 10 nM | CCC[C@H](Oc1ccccc1Cl)[C@H]1CCNC1 [Example 4-19, (S)-3-[(S)-1-(2-Chlorophenoxy)butyl]pyrrolidine]
≤ 10 nM | CCC[C@@H](Oc1ccccc1Cl)[C@H]1CCNC1 [Example 4-20, (S)-3-[(R)-1-(2-Chlorophenoxy)butyl]pyrrolidine]
≤ 10 nM | CCC[C@@H](Oc1cccc(Cl)c1Cl)[C@H]1CCNC1 [Example 4-23, (S)-3-[(R)-1-(2,3-Dichlorophenoxy)butyl]pyrrolidine]
≤ 10 nM | CCC[C@@H](Oc1cccc(Cl)c1Cl)[C@@H]1CCNC1 [Example 4-25, (R)-3-[(R)-1-(2,3-Dichlorophenoxy)butyl]pyrrolidine]
≤ 10 nM | CCC[C@H](Oc1c(Cl)ccc(Cl)c1Cl)[C@H]1CCNC1 [Example 4-27, (S)-3-[(S)-1-(2,3,6-Trichlorophenoxy)butyl]pyrrolidine]
≤ 10 nM | CCC[C@H](Oc1ccc(Cl)cc1Cl)[C@H]1CCNC1 [Example 4-28, (S)-3-[(S)-1-(2,4-Dichlorophenoxy)butyl]pyrrolidine]

Molecular target: T2, hNET
Assay: hNET neurotransmitter uptake assay (3H-NE), Assay 2
Format: cell-based
Parameters: expressed in transfected cells; host or cells: HEK-293
Settings: norepinephrine reuptake inhibition, 3H-NE uptake, HEK-293 hNET cells (values without asterisk); read-out: NET pIC50 (converted)
Method: as §1, §2

SMILES | IC50
CCC[C@H](Oc1ccc(F)cc1Cl)[C@H]1CCNC1 [Example 4-32, (S)-3-[(S)-1-(2-Chloro-4-fluorophenoxy)butyl]pyrrolidine] | ≤ 10 nM
CCC[C@H](Oc1c(Cl)cccc1Cl)[C@H]1CCNC1 [Example 4-33, (S)-3-[(S)-1-(2,6-Dichlorophenoxy)butyl]pyrrolidine] | ≤ 10 nM
CCC[C@H](Oc1ccc(C)cc1Cl)[C@H]1CCNC1 [Example 4-37, (S)-3-[(S)-1-(2-Chloro-4-methylphenoxy)butyl]pyrrolidine] | ≤ 10 nM
CCC[C@H](Oc1c(F)ccc(OC)c1Cl)[C@H]1CCNC1 [Example 4-43, (S)-3-[(S)-1-(2-Chloro-6-fluoro-3-methoxyphenoxy)butyl]pyrrolidine] | ≤ 10 nM
CCC[C@H](Oc1ccc(F)c(F)c1F)[C@H]1CCNC1 [Example 4-50, (S)-3-[(S)-1-(2,3,4-Trifluorophenoxy)butyl]pyrrolidine] | ≤ 10 nM
CCC[C@H](Oc1cccc(Cl)c1C)[C@H]1CCNC1 [Example 4-54, (S)-3-[(S)-1-(3-Chloro-2-methylphenoxy)butyl]pyrrolidine] | ≤ 10 nM
CCC[C@@H](Oc1cccc(Cl)c1C)[C@H]1CCNC1 [Example 4-55, (S)-3-[(R)-1-(3-Chloro-2-methylphenoxy)butyl]pyrrolidine] | ≤ 10 nM
CCC[C@@H](Oc1cccc(Cl)c1C)[C@@H]1CCNC1 [Example 4-57, (R)-3-[(R)-1-(3-Chloro-2-methylphenoxy)butyl]pyrrolidine] | ≤ 10 nM
CCC[C@H](Oc1ccc(Cl)cc1C)[C@H]1CCNC1 [Example 4-58, (S)-3-[(S)-1-(4-Chloro-2-methylphenoxy)butyl]pyrrolidine] | ≤ 10 nM
CCC[C@@H](Oc1cccc(C)c1C)[C@@H]1CCNC1 [Example 4-63, (R)-3-[(R)-1-(2,3-Dimethylphenoxy)butyl]pyrrolidine] | ≤ 10 nM

Next, values leading:

IC50 | SMILES
≤ 10 nM | CCC[C@H](Oc1ccc(Cl)c(F)c1)[C@H]1CCNC1 [Example 4-18, (S)-3-[(S)-1-(4-Chloro-3-fluorophenoxy)butyl]pyrrolidine]
≤ 10 nM | CCC[C@H](Oc1ccccc1Cl)[C@H]1CCNC1 [Example 4-19, (S)-3-[(S)-1-(2-Chlorophenoxy)butyl]pyrrolidine]
≤ 10 nM | CCC[C@@H](Oc1ccccc1Cl)[C@H]1CCNC1 [Example 4-20, (S)-3-[(R)-1-(2-Chlorophenoxy)butyl]pyrrolidine]
≤ 10 nM | CCC[C@@H](Oc1cccc(Cl)c1Cl)[C@H]1CCNC1 [Example 4-23, (S)-3-[(R)-1-(2,3-Dichlorophenoxy)butyl]pyrrolidine]
≤ 10 nM | CCC[C@@H](Oc1cccc(Cl)c1Cl)[C@@H]1CCNC1 [Example 4-25, (R)-3-[(R)-1-(2,3-Dichlorophenoxy)butyl]pyrrolidine]
≤ 10 nM | CCC[C@H](Oc1c(Cl)ccc(Cl)c1Cl)[C@H]1CCNC1 [Example 4-27, (S)-3-[(S)-1-(2,3,6-Trichlorophenoxy)butyl]pyrrolidine]
≤ 10 nM | CCC[C@H](Oc1ccc(Cl)cc1Cl)[C@H]1CCNC1 [Example 4-28, (S)-3-[(S)-1-(2,4-Dichlorophenoxy)butyl]pyrrolidine]
